From a melting point compilation (Tetko et al.; mined from patent text by program, amines drawn as free bases though some values may be those of a salt) come the findings set out here.

Usually melting point stands for the temperature, or range, at which the solid turns liquid. `CCOC(=O)Nc1nc(-c2ccccc2)c(-c2nc3ccccc3c(=O)n2-c2ccc(C(C)=O)cc2)s1`: the melting point fell in the range of 245 to 247 °C.
As to `O=C(N1CCCC1)C1(N2CCCCC2)CCNCC1`, the melting point was found to be 144 °C.
The compound `O=[N+]([O-])c1cc(C2=NOC(c3cc(Cl)cc(Cl)c3)(C(F)(F)F)C2)ccc1-n1cncn1` (centres undefined) yielded a melting point of 64 to 72 °C.
The figure for `Nc1ncnc2c1c(-c1cccc3[nH]ncc13)nn2Cc1oc2ccccc2c(=O)c1-c1ccccc1` is 248 to 252 °C; for `Cc1ccc(NC(=O)c2ccc(C(=O)Nc3ccccc3N)cc2)cc1Nc1nc(-c2cccnc2)cs1` it is 147 °C.
The figure for `CC(C)(c1ccc(Oc2ccc(N=C=O)cc2)cc1)c1ccc(Oc2ccc(N=C=O)cc2)cc1` is 68 to 69 °C; for `CC1CN(C(=O)C(Cl)Cl)C(C)CN1C(=O)C(Cl)Cl` (centres undefined) it is 215 °C; for `Nc1ncc(S(=O)c2cccnc2)s1` (centres undefined) it is 178 to 179 °C.
With `CCCCCCCCCCOC(=O)N[C@H]1CCCNC(=O)C1` the figure was 40 to 41 °C; with `CC1(C)Oc2cc(N)c([N+](=O)[O-])cc2[C@@H](N2CCCC2=O)[C@@H]1O` (relative stereo), 310 to 313 °C.
Take `COc1cccc(-c2cc(Cl)cc3c2OC(CN)C3)c1OC` (centres undefined): the melting point fell in the range of 120 to 122 °C.
The figure for `CCOc1ccc(N2CC(C(=O)OC)CC2=O)cc1` (centres undefined) is 67 to 69 °C.
The figure for `CC(=O)Oc1ccc(C(=O)O)cc1C(=O)c1ccccc1` is 162 to 163 °C; for `CCOC(=O)Cn1cnc2c(N3CCOCC3)nc(NC(=O)C3CCCCC3)nc21` it is 142 to 147 °C; for `c1ccc(C2=Nc3ccccc3N3CCc4cccc2c43)cc1` it is 141 to 143 °C.
The figure for `O=C(NCCN1CCOCC1)Nc1nc2ccc(OCc3c(Cl)cccc3Cl)cc2s1` is 268 to 271 °C; for `CS(=O)(=O)c1ccc(Oc2cc(OCc3ccccc3)c3[nH]c(C(N)=O)cc3c2)cc1` it is 251 to 252 °C; for `Nc1ccc(-c2nc3ccccc3s2)cc1Cl` it is 160 to 162 °C.
For `CC(=O)OC1CSC(Oc2ccnc(Br)c2)C(OC(C)=O)C1OC(C)=O` (centres undefined), the melting point is 162 °C.
The figure for `COc1nc(C)cnc1NS(=O)(=O)c1cccnc1-c1ccc(OC(C)C(=O)O)cc1` (centres undefined) is 149 to 151 °C.
The figure for `COC(=O)CC1CC(c2ccc(C#N)cn2)=NO1` (centres undefined) is 97 to 98 °C.
The figure for `CCN1C(=O)N(c2cc(OC)cc(OC)c2)Cc2cnc(SC)nc21` is 134 to 136 °C; for `Clc1cccc2c1CNC2` it is 48 to 50 °C.
`Cc1ccc(Cc2cnc(NCCCCNc3ccc(Cl)cn3)[nH]c2=O)cn1`: the melting point was in the range of 214 to 215 °C.
Compound `COc1cccc(-c2nc3c(C(N)=O)cccc3[nH]2)c1` registered a melting point of 93 to 94 °C.
In the case of `O=C1NCCc2cc(O)ccc21`, the melting point is 204 to 206 °C.
For `CCOP(=O)(OCC)C(O)=Cc1nn(-c2ccc(F)cc2)cc1-c1ccc(Cl)cc1`, the melting point lay within 96 to 98 °C.
With `O=S(CBr)c1ccc2c(c1)OCO2` (centres undefined) the figure was 88 to 89 °C.
`N#Cc1ccc(NC(=O)N[C@@H]2C[C@@H]2c2c(F)cccc2Cl)nc1` (relative stereo): the melting point is 189 °C.
For `O=C1C(=O)c2ccccc2C2=C1SCC(CN1CCC3(CC1)OCCO3)O2` (centres undefined), the melting point fell in the range of 202 to 204 °C.
With `CC(C)CCc1cc2nnc(-c3ccccc3F)n2nc1OCc1ncnn1C` the figure was 103 to 105 °C; with `CC(=O)N(O)Cc1ccccc1Nc1cccc(C)c1C`, 93 to 98 °C.
The figure for `CCOC(=O)c1c(CBr)n(C)c2cc(Br)c(OC(C)=O)cc12` is 179 to 180 °C; for `COc1ccc(-c2nc3c(OC)cccc3s2)cc1` it is 86 to 88 °C.
The figure for `COC(=O)c1ccccc1S(=O)(=O)NCC(=O)N[C@@H](Cc1ccccc1)C(=O)O` is 140 to 143 °C; for `CC(=O)SCCC(=O)N(C)C` it is 118 to 121 °C; for `NS(=O)(=O)c1cccc(-c2nc(-c3cnn4c(C(F)(F)F)cc(-c5ccc(C(F)(F)F)cc5)nc34)no2)c1` it is 285 °C.
In turn, `CCCCOc1c(-c2cc(C=CC(=O)O)ccc2O)cc(C(C)(C)C)cc1C(C)(C)C` returned a melting point of 92 to 94 °C.
The figure for `Cc1cc2c(cc1CN1CCN(C)CC1)-c1[nH]nc(-c3ccsc3)c1C2` is 210 to 212 °C; for `O=c1c(-c2nnn[nH]2)cnc2c(Cl)cccn12` it is 313 to 315 °C; for `COc1ccc(-c2nc(SC(C)C)[nH]c2-c2ccncc2)cc1` it is 206 to 210 °C.
With `N#CSc1nc(C(F)(F)C(F)F)nc2ccccc12` the figure was 112 to 114 °C.
With `CC(C)(C)c1cc(CCc2ccccc2NC(=O)N(Cc2ccccc2)C2CCCCCC2)cc(C(C)(C)C)c1O` the figure was 183 to 184 °C; with `O=C(NCCc1c2n(c3ccc(O)nc13)CCCC2)c1ccco1`, 270 °C.
`COc1ccc(-c2nnc(O)nc2-c2ccc(OC)cc2)cc1`: the melting point is 238 to 242 °C.
The compound `CC(C)=CCn1ncc(-c2ccc(S(C)(=O)=O)cc2)c(-c2ccc(F)cc2)c1=O` had a melting point of 169 to 172 °C.
Compound `COCCO[C@@H]1c2ccc3c(nc(C4CC4)n3C)c2O[C@H](c2ccccc2)[C@H]1O` had a melting point of 133 °C.
With `O=c1cc(CCN2CCC(c3c[nH]c4ccccc34)CC2)c2ccccc2[nH]1` the figure was 259 to 260 °C; with `c1cnc(SCc2nc3ccccc3[nH]2)nc1`, 154 to 155 °C; with `NC(=O)c1sc2ncnc(-c3cc4c(c(OCc5ccccc5)c3)CCO4)c2c1N`, 239 °C.
With `Cc1cc(-c2ccc(S(C)(=O)=O)cc2)n(-c2ccc(F)cc2)c1` the figure was 127 to 130 °C; with `CS(=O)(=O)c1ccc(-c2cn[nH]c(=O)c2-c2ccc(F)cc2)cc1`, 255 to 256 °C.
With `CC(C)(C)C(=O)COc1nn(CC(=O)C(C)(C)C)c(-c2ccc(S(C)(=O)=O)cc2)c1-c1ccc(F)cc1` the figure was 180 to 182 °C.
`CCOC(=O)N1CC[C@H](NC(=O)c2cc(N)c(Cl)cc2OC)[C@H](OC)C1` (relative stereo) returned a melting point of 142 °C.
The figure for `O=C(NCc1cccnc1)c1ccc2n1Cc1ccccc1N(C(=O)c1ccc(-c3ccccc3CN3CCOCC3)cc1)C2` is 191 to 194 °C; for `CN(C)c1ccc(C(=O)C(F)(F)c2cccc(Cl)c2)cc1` it is 104 to 108 °C.
The figure for `O=C(c1ccccc1)c1cccc(Cl)c1[N+](=O)[O-]` is 126 °C; for `CCC(CC)n1cc(Cl)nc(N2CCc3cc(OC)cc(Br)c32)c1=O` it is 130 to 132 °C.
`O=C(CCN1CCN(c2cnc3ccccc3c2)CC1)c1csc2ccccc12` displayed a melting point of 112 to 114 °C.
With `Cc1c(C)c2c(c(C)c1N)CC(C)(CN1CCC(O)(c3ccc(Cl)cc3)CC1)O2` (centres undefined) the figure was 118 to 120 °C.
The figure for `CC(C)OCc1cc2ccccc2oc1=Nc1ccccc1` is 107 to 108 °C.
With `N#CNC(=S)Nc1cccc(Cl)c1` the figure was 258 to 260 °C; with `CCOC(=O)CCC1(CCC(=O)OCC)CCC(=O)N1`, 44 to 46 °C.
Consider `CCCCOc1cc(C(=O)O)cc(S(N)(=O)=O)c1-c1ccccc1`, for which the melting point fell in the range of 129 to 131 °C.
The figure for `COC(=O)c1cc(-c2ccccc2C)c(C(=O)OC)cc1I` is 105 to 109 °C.
With `Clc1csc(-c2nc(COc3ccc(CCCn4ccnc4)cc3)co2)c1` the figure was 69 to 70 °C; with `CCCCOC(=O)c1cc2c(cn1)[nH]c1ccccc12`, 211 to 212 °C; with `O=C(O)c1ccc2c(c1)CCC(CO)O2` (centres undefined), 150 °C.
The figure for `NC(=S)NN=C(CCC(=O)N1CCCCC1)c1ccccc1` is 181 to 183 °C; for `CC1(CNCc2cc3cc(NC(=O)c4ccc(OCC5CC5)cc4)ccc3[nH]2)COC1` it is 166 to 167 °C; for `O=C(O)c1c[nH]c2oc3ccccc3c(=O)c2c1=O` it is 335 to 340 °C.
As to `CN(C)C(=O)c1ccc(I)cc1`, the melting point was in the range of 103 to 106 °C.
In the case of `CCN(CC)C(=O)c1cc2cc(OC)c(OC)cc2c(-c2ccccc2)n1`, the melting point was determined as 134 °C.
The figure for `O=C(O)Cc1cn(-c2ccccc2)nc1-c1ccccc1` is 120 to 121 °C; for `CCCC(=O)c1cn(C)cc(-c2cccc(C(F)(F)F)c2)c1=O` it is 93 to 94 °C; for `COC(=O)c1cccc([N+](=O)[O-])c1NC(=O)OC(C)(C)C` it is 92 to 94 °C.
The figure for `O=C1COc2ccc(C3=Cc4ccc(NCCO)cc4SC3c3ccccc3)cc2N1` (centres undefined) is 201 to 202 °C.
`Cc1c(CN2CCc3c(c4cccc(F)c4n3C)C2=O)ncn1S(=O)(=O)N(C)C` gave a melting point of 162 to 166 °C.
With `CN(C)C(=O)Cn1nnnc1S` the figure was 204 to 205 °C; with `Cc1ccc(Cl)c(Nc2ccccc2-c2nnco2)c1Cl`, 180 to 181 °C.
With `Cc1cc(C)cc(P(=O)(O)O)c1` the figure was 197 to 199 °C; with `N#CC(C#N)=C1Sc2cnn(-c3ccccc3)c(=O)c2S1`, 240 °C.
With `Cc1ccc(C2Sc3cc(C)ccc3NC(=O)C2=O)cc1` (centres undefined) the figure was 142 to 144 °C.
`COc1ccc2c(=O)c3cccc(OCc4ccccc4)c3oc2c1` returned a melting point of 158 °C.
With `COC(=O)c1ccccc1C(=O)NN(C(=S)Nc1ccccc1)C(C)C` the figure was 145 to 147 °C; with `CCC(=O)N[C@@H](C)C(=O)N1CCC[C@H]1C(=O)NC1CCCCCCC1`, 142 to 143 °C.
The figure for `Cc1noc(C)c1C(=O)Nc1ccc(-n2nc(C3CC3)cc2C2CC2)c(F)c1` is 166 to 168 °C; for `CCN(CC)C(=O)c1ccn2nc(-c3ccccc3)c(-c3ccc(=O)n(C(C)C)n3)c2c1` it is 157 to 158 °C; for `CCCCCS(=O)(=O)NC(=O)/C=C/c1ccc(OCCOC)cc1Oc1ncc(Br)cc1C` it is 160 °C.
